Laboratory results published in patent US4659691A, “Novel cyclic Hexapeptide LHRH antagonists” (Merck & Co., Inc., priority 1985, dated 1987).
Where a SMILES comes first, the peptide text is derived from it. [ ]: non-standard residue; d: D form.

System: rat pituitary cells
Test: Isolated rat pituitary cell culture system: antagonism of LH-RH-stimulated LH release
Assay type: cell-based
Procedure: Cyclic hexapeptides of the present invention are evaluated as antagonists of LH-RH in an in vitro pituitary cell culture system. This assay system is described in Vale and Brant, Methods Enzymol, 37, 82 (1975), hereby incorporated by reference for this purpose.
For purposes of illustration, the data for cyclo-[Tyr-D-Trp-Leu-Arg-Trp-Pro] (5) in this assay are presented.
At a dose range of 10^-5 to 10^-9 M, compound 5 was tested in combination with a single dose of LHRH (luteinizing hormone release hormone) on rat pituitary cells in vitro for 60 minutes.

CC(C)C[C@@H]1NC(=O)[C@@H](Cc2c[nH]c3ccccc23)NC(=O)[C@H](Cc2ccc(O)cc2)NC(=O)[C@@H]2CCCN2C(=O)[C@H](Cc2c[nH]c3ccccc23)NC(=O)[C@H](CCCNC(=N)N)NC1=O [Compound 5, cyclo-(Tyr-D-Trp-Leu-Arg-Trp-Pro)] (cyclo(LRWPY[dW]))
reduction of LH release (all lower doses of compound 5 (below 10^-5 M) in the presence of 5×10^-7, 10^-7, 5×10^-8 and 10^-8 M LHRH): essentially ineffective
antagonism to LHRH (compound 5 at 10^-5 M, LHRH at 10^-6, 5×10^-7, 5×10^-8, 10^-8, 5×10^-9, 10^-9 and 5×10^-10 M, 60 minutes): significantly antagonistic
reduction of LH release (compound 5 at 10^-7, 10^-8 and 10^-9 M in the presence of 10^-6 M LHRH, 60 minutes): significantly reduced LH release
effect on LH release (compound alone) (compound 5 at 10^-7 M, no LHRH): does not affect LH release
overall conclusion on LHRH antagonism (greatest antagonistic effect at lower doses of LHRH): antagonistic to LHRH
inhibition of LH release, dose relation (in the presence of 5×10^-9, 10^-9 and 5×10^-10 M LHRH, greatest antagonism at 10^-9 M LHRH): significant dose related inhibition
